Results reported in US20060183889A1, “Alkyl phosphine detergent products and extraction processes” (priority 2005, published 2006).
Peptide text beside a SMILES is read from it.

Assays:
[1] = cited from earlier work
[2] = tested on: uninduced BL21 Star cells; experiment: Screening of detergents: lysis of uninduced cell cultures analysed by PAGE; type: cell-based, E. coli; conditions: for lysis of uninduced BL21 Star cells by PAGE (FIG. 1) / lysis capabilities by PAGE (FIG. 2) / lysis performance: 1% detergent in 50 mM phosphate; for lysis of uninduced BL21 Star cells by PAGE (FIG. 1) / lysis performance: 300 mM NaCl pH 7; for lysis capabilities by PAGE (FIG. 2): 300 mM NaCl pH=7, alkyl chain length 9-11; for lysis performance: compared with BugBuster; for lysis of bacterial cells: 1% detergent in 50 mM phosphate pH 7, uninduced cell cultures, compared with BugBuster and B-Per
Method: (§1) Cultures were grown to OD600=1.2-1.5 and then collected for lysis. One ml of culture was subjected to centrifugation (10,000×g) and lysed in 75 to 100 μl of each lysis buffer depending on optical density (OD). In some samples 10 μl of 1:100 dilution of BENZONASE® nuclease (Benzon Pharma A/S) and 10 μl of 0.5 mg/ml Lysozyme were added. Samples were allowed to incubate at room temperature for approximately 10 minutes, then spun down at 10,000×g. Supernatant was pipetted and used for subsequent activity assays and SDS-PAGE analysis. For BL21 (DE3) pLysS cultures, 2 independent lysates of each culture with and without lysozyme were prepared and tested.
(§2) For gel electrophoresis, 15 μL of each lysate was incubated with 5 μl of 4× LDS Sample buffer and 2 μl of NuPage Reducing reagent in a 70° C. heat block for 10 minutes. 5 μl of the samples were run on 4-12% NuPAGE gels (Invitrogen cat # NP0321 or NP0323) with MES SDS running buffer. SDS-PAGE gels were stained with SimplyBlue Safe Stain (Invitrogen cat# LC6065).
Screening of a wide range of detergents was performed by evaluating the lysis of uninduced cell cultures. For the first round of screening, detergents from different chemical groups were evaluated starting with some well-known detergents such as Triton X-100, Elugent, NP-7, NP-40. The lysis buffers were prepared at 1% detergent concentration in 50 mM phosphate pH 7. The detergents were compared with known lysis procedures using BugBuster® lysis reagent (Novagen), B-Per™ protein extraction reagent (Pierce), Relay 96 Protein Screen (Invitrogen), and sonication.
Other types of detergents also screened were ASB-C8 and three other synthesized sulfobetaine detergents: SB-A, SB-B, and SB-C, as well as APO-8, APO-10, APO-12 and N-dodecanoyl sucrose as 1% detergent solutions in 50 mM phosphate, 300 mM NaCl pH 7) using BL21 Star cells. […] Lane 1 is a Mark 12 Molecular Weight Standard; lane 2 is a 1% SB-A lysis solution; lane 3 is a 1% ASB-C8 lysis solution; lane 4 is a 1% SB-B lysis solution; lane 5 is a 1% SB-C lysis solution; lane 6 is a 1% APO-8 lysis solution; lane 7 is a 1% APO-10 lysis solution; lane 8 is a 1% APO-12 lysis solution; lane 9 is a 1% N-Dodecanoyl Sucrose lysis solution and lane 10 is BugBuster® HT lysis reagent. […] It is likely that the length of the alkyl chain is critical for the lysis ability of the detergent. Therefore, another round of testing was performed with detergents of the same type with alkyl chains one […] smaller and bigger than APO-10. […] One percent detergent formulations were prepared in 50 mM phosphate, 300 mM NaCl pH=7. In FIG. 2, Lane 1 is a Mark 12 Molecular Weight Standard; lane 2 is BugBuster® HT; lane 3 is a 1% APO-9 lysis solution; lane 4 is a 1% APO-10 lysis solution and lane 5 is a 1% APO-11 lysis solution.

[3] = tested on: BL-21-AI, BL-21-Star, BL-21 DE3; experiment: Side by side comparison of alkylglucoside and alkylphosphine detergents as lysis reagents; type: cell-based, E. coli; conditions: several cell types: BL-21-AI
Method: as §1, §2
Side by side comparison testing was performed of the alkylglucoside and alkylphosphine detergents with several different cell types: BL-21-AI, BL-21-Star, BL-21 DE3. In this comparison testing BugBuster® HT lysis reagent (Novagen), B-Per™ protein extraction reagent (Pierce), n-octyl-β-D-glucopyranoside, n-nonyl-β-D-glucopyranoside, and n-octyl-β-D-thioglucopyranoside, APO-9 and APO-10 were utilized. […] Further optimization and testing was concentrated on the use of APO detergents by themselves and in combination with other detergents.

BL21 Star cultures = experiment: MBP extraction evaluated qualitatively by SDS PAGE; type: cell-based, E. coli; conditions: qualitative
Method: (§3) E. coli strain BL21 cells were transformed with plasmids expressing β-galactosidase, green fluorescent protein (GFP) or maltose binding protein (MBP) as follows. BL21-AI were transformed with pET 100 expressing n-terminal 6×His tagged GFP or n-terminally 6×His tagged LacZ (β-galactosidase). The cells were grown at 37° C. to OD600=0.4-0.5 and then induced with 1 mM IPTG and 0.1% arabinose. The expression was performed for 2-4 hours at 37° C. BL21 Star cells were transformed with plasmid expressing MBP. The cells were grown at 37° C. to OD600=0.4-0.5 and then induced with 1 mM IPTG. Protein expression was performed at 30° C. for 2-4 hours. BL-21(DE3) and BL-21(DE3)pLysS cells were transformed with vector expressing N-terminally 6×His tagged LacZ (β-galactosidase) (pET 100 lacZ-IVGN cat# K100-01), N-terminal Lumio tag (Cys-Cys-Pro-Gly-Cys-Cys) and 6×His tagged Lac-Z (pET 160 LacZ), and N-terminal Lumio tag (Cys-Cys-Pro-Gly-Cys-Cys) and 6×His tagged GFP (pET 160 GFP). […]
Following preliminary screening, more detailed testing was performed using GFP, β-galactosidase and MBP expressed in E. coli. […] The activity of the β-galactosidase was measured using the β-galactosidase activity kit (Invitrogen) as described above. The GFP activity (native state) was tested by measuring the fluorescence of the protein as described above. MBP extraction was evaluated qualitatively by SDS PAGE gel electrophoresis.

[4] = tested on: BL21- AI cells expressing β-galactosidase; experiment: Lysis of cells expressing β-galactosidase, β-galactosidase activity of lysate; type: cell-based, E. coli; conditions: 0.5% APO detergent formulation; lysozyme in the lysis buffer
Method: as §3, with “hours.” for “hours. BL-21(DE3) and BL-21(DE3)pLysS cells were transformed with vector expressing N-terminally 6×His tagged LacZ (β-galactosidase) (pET 100 lacZ-IVGN cat# K100-01), N-terminal Lumio tag (Cys-Cys-Pro-Gly-Cys-Cys) and 6×His tagged Lac-Z (pET 160 LacZ), and N-terminal Lumio tag (Cys-Cys-Pro-Gly-Cys-Cys) and 6×His tagged GFP (pET 160 GFP).”
(§4) GFP activity was determined by reading fluorescence (Excitation at 395/Emission […]) of lysates (diluted 1:20 or 1:40 in 50 mM Phosphate pH 7). The raw data was recorded. LacZ activity was determined by using the β-galactosidase assay kit (IVGN cat # K1455-01). The lysate samples were diluted 1:100 and then analyzed as described in the kit manual. Results were obtained using OD420 readings in the following equation: nmoles of ONPG hydrolyzed/μL lysate=(OD420background) (1.92×10^5 nl)(dilution factor=100) (4500 nl/nmoles-cm)×(1 cm) Data was normalized to the reading received from a control sample prepared with BugBuster® or BugBuster® HT (Novagen) lysis reagents. […]

[5] = tested on: BL21-AI cells expressing GFP; experiment: Lysis of cells expressing GFP, fluorescence of lysate; type: cell-based, E. coli; conditions: 0.5% in 50 mM Tris pH=7; normalized to BugBuster; average of multiple treatments
Method: as §3, with “hours.” for “hours. BL-21(DE3) and BL-21(DE3)pLysS cells were transformed with vector expressing N-terminally 6×His tagged LacZ (β-galactosidase) (pET 100 lacZ-IVGN cat# K100-01), N-terminal Lumio tag (Cys-Cys-Pro-Gly-Cys-Cys) and 6×His tagged Lac-Z (pET 160 LacZ), and N-terminal Lumio tag (Cys-Cys-Pro-Gly-Cys-Cys) and 6×His tagged GFP (pET 160 GFP).”
as §4

Q: With `NC(=O)CN(CC(=O)O)CC(=O)O` [ADA] as the molecule, how does the “pKa(4° C.)” value [1] read?
A: 6.80

Q: And the “pKa(20° C.)” value [1]?
A: 6.60

Q: What about the “pKa(37° C.)” value [1] of the same molecule?
A: 6.43

Q: What about the “Temperature Coefficient (↑pKa/° C.)” value [1] of the same molecule?
A: 0.011 ↑pKa/° C.

Q: Which “lysis of uninduced BL21 Star cells by PAGE (FIG. 1)” value (“lysis of uninduced BL21 Star cells” below) [2] does the source give for `CCCCCCCCP(C)(C)=O` [APO-8, Dimethyloctylphosphine oxide] here?
A: did not lyse the cells efficiently

Q: Which results are given for `CCCCCCCCCP(C)(C)=O` [APO-9, Dimethylnonylphosphine oxide]?
A: lysis capabilities by PAGE (FIG. 2) [2]: optimal lysis capabilities; performance as lysis reagent [3]: performed well

Q: For `CCCCCCCCCCP(C)(C)=O` [APO-10, Dimethyldecylphosphine oxide], which “lysis of uninduced BL21 Star cells” value [2] is on record?
A: performed very well

Q: What about the “lysis capabilities by PAGE (FIG. 2)” value [2] of the same molecule?
A: optimal lysis capabilities

Q: And the MBP extraction (BL21 Star cultures)?
A: similarly or slightly better

Q: And the “performance as lysis reagent” value [3]?
A: performed well

Q: And the “difference of β-galactosidase extraction performance from the BPER-2 reagent (FIG. 4)” value [4]?
A: ≤ 5%

Q: And the “difference of GFP fluorescence result from the BugBuster reagent (FIG. 3)” value [5]?
A: ≤ 7%

Q: For `CCCCCCCCCCCCP(C)(C)=O` [APO-12, Dimethyldodecylphosphine oxide], which “lysis of uninduced BL21 Star cells” value [2] is on record?
A: did not lyse the cells efficiently

Q: For `O=S(=O)(O)CCN(CCO)CCO` [BES], which “pKa(4° C.)” value [1] is on record?
A: 7.41

Q: What about the “pKa(20° C.)” value [1] of the same molecule?
A: 7.5

Q: And the “pKa(37° C.)” value [1]?
A: 6.88

Q: And the “Temperature Coefficient (↑pKa/° C.)” value [1]?
A: 0.016 ↑pKa/° C.

Q: For `O=C(O)CN(CCO)CCO` [Bicine], which “pKa(4° C.)” value [1] is on record?
A: 8.64

Q: What about the “pKa(37° C.)” value [1] of the same molecule?
A: 8.04

Q: What about the “Temperature Coefficient (↑pKa/° C.)” value [1] of the same molecule?
A: 0.018 ↑pKa/° C.

Q: With `Cl.NCC(N)=O` [Glycinamide HCL] as the molecule, how does the “pKa(4° C.)” value [1] read?
A: 8.66

Q: And the “pKa(20° C.)” value [1]?
A: 8.20

Q: What about the “pKa(37° C.)” value [1] of the same molecule?
A: 7.71

Q: And the “Temperature Coefficient (↑pKa/° C.)” value [1]?
A: 0.029 ↑pKa/° C.

Q: For `NCC(=O)NCC(=O)O` [Glycylglycine] (H-Gly-Gly-OH), which “pKa(4° C.)” value [1] is on record?
A: 8.85

Q: And the “pKa(37° C.)” value [1]?
A: 7.92

Q: What about the “Temperature Coefficient (↑pKa/° C.)” value [1] of the same molecule?
A: 0.028 ↑pKa/° C.

Q: For `O=S(=O)(O)CCCN1CCN(CCO)CC1` [HEPPS], which “pKa(4° C.)” value [1] is on record?
A: 8.18

Q: And the “pKa(20° C.)” value [1]?
A: 8.00

Q: And the “pKa(37° C.)” value [1]?
A: 7.81

Q: What about the “Temperature Coefficient (↑pKa/° C.)” value [1] of the same molecule?
A: 0.011 ↑pKa/° C.

Q: Which “pKa(4° C.)” value [1] does the source give for `O=S(=O)(O)CCNC(CO)(CO)CO` [TES] here?
A: 7.82

Q: What about the “pKa(20° C.)” value [1] of the same molecule?
A: 7.50

Q: What about the “pKa(37° C.)” value [1] of the same molecule?
A: 7.16

Q: What about the “Temperature Coefficient (↑pKa/° C.)” value [1] of the same molecule?
A: 0.020 ↑pKa/° C.

Q: With `O=C(O)CNC(CO)(CO)CO` [TRICINE] as the molecule, how does the “pKa(4° C.)” value [1] read?
A: 8.49

Q: What about the “pKa(37° C.)” value [1] of the same molecule?
A: 7.79

Q: And the “Temperature Coefficient (↑pKa/° C.)” value [1]?
A: 0.021 ↑pKa/° C.

Q: Which lysis performance [2] does the source give for `CCCCCCCCCCCCO[C@@H]1O[C@H](CO)[C@@H](O[C@H]2O[C@H](CO)[C@@H](O)[C@H](O)[C@H]2O)[C@H](O)[C@H]1O` [n-dodecyl-β-D-maldoside] here?
A: good lysis performance

Q: What does the source list for `CCCCCCCCCO[C@@H]1O[C@H](CO)[C@@H](O)[C@H](O)[C@H]1O` [n-nonyl-β-D-glucopyranoside]?
A: lysis performance [2]: good lysis performance; performance as lysis reagent [3]: performed well

Q: What does the source list for `CCCCCCCCO[C@@H]1O[C@H](CO)[C@@H](O)[C@H](O)[C@H]1O` [n-octyl-β-D-glucopyranoside]?
A: lysis performance [2]: good lysis performance; MBP extraction (BL21 Star cultures): comparable; performance as lysis reagent [3]: performed well

Q: Which lysis performance [2] does the source give for `CCCCCCCCS[C@@H]1O[C@H](CO)[C@@H](O)[C@H](O)[C@H]1O` [n-octyl-β-D-thioglucopyranoside] here?
A: good lysis performance

Q: What about the “performance as lysis reagent” value [3] of the same molecule?
A: performed well

Q: Which “lysis of uninduced BL21 Star cells” value [2] does the source give for N-dodecanoyl sucrose here?
A: did not lyse the cells efficiently

Q: Which “lysis of bacterial cells” value [2] does the source give for NP-40 here?
A: not be very efficient

Q: Which “lysis of bacterial cells” value [2] does the source give for Triton X-100 here?
A: not be very efficient
